Assay results as given in ChEMBL document CHEMBL1159198, “Identification of magnolol and honokiol as anxiolytic agents in extracts of saiboku-to, an oriental herbal medicine” (1998).
The source made the active and inactive calls. The calls are words filed in the database; no cut-off is given here.

Experiments:
[1] = system: Mus musculus; assay: Anxiolytic activity in ddY mouse assessed as time spent in open-sided arms at 0.49 mg/kg, po administered once daily for 7 days by elevated plus-maze test; format: functional, organism-based; parameters: dose 0.49 mg/kg
[2] = system: Mus musculus; assay: Anxiolytic activity in ddY mouse assessed as time spent in open-sided arms at 1 mg/kg, po administered once daily for 1 day by elevated plus-maze test; format: functional
[3] = system: Mus musculus; assay: Anxiolytic activity in ddY mouse assessed as time spent in open-sided arms at 0.19 mg/kg, po administered once daily for 7 days by elevated plus-maze test; format: functional
[4] = system: Mus musculus; assay: Anxiolytic activity in ddY mouse assessed as time spent in open-sided arms at 0.19 mg/kg, po administered once daily for 3 days by elevated plus-maze test; format: functional
[5] = system: Mus musculus; assay: Anxiolytic activity in ddY mouse assessed as time spent in open-sided arms at 0.19 mg/kg, po administered once daily for 14 days by elevated plus-maze test; format: functional
[6] = system: Mus musculus; assay: Anxiolytic activity in ddY mouse assessed as time spent in open-sided arms at 0.19 mg/kg, po administered once daily for 5 days by elevated plus-maze test; format: functional
[7] = system: Mus musculus; assay: Anxiolytic activity in ddY mouse assessed as time spent in open-sided arms at 0.19 mg/kg, po administered once daily for 1 day by elevated plus-maze test; format: functional

Structure (SMILES) | Activity [1] | Time [2] | Time [3] | Time [4] | Time [5] | Time [6] | Time [7]
C=CCc1ccc(O)c(-c2cc(CC=C)ccc2O)c1 | Active | – | – | – | – | – | –
CN1C(=O)CN=C(c2ccccc2)c2cc(Cl)ccc21 [DIAZEPAM] | – | 22.1 s | – | – | – | – | –
C=CCc1ccc(O)c(-c2ccc(O)c(CC=C)c2)c1 [HONOKIOL] | Active | – | 10.9 s | 4 s | 12.3 s | 9.1 s | 3.7 s
